Test system: 616215-338-R-J1-PDC complex spheroid viability
Assay: Anticancer human tumor 616215-338-R-J1-PDC patient-derived colon adenocarcinoma cell line growth inhibition [RAS]
Details: for IC50: curve of first compound; for viability, T/C: stronger effect = lower value
Summary of the method: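 Agents were tested in combination matrices in half-log decrements from a top concentration at or near clinical Cmax (10 microM if undetermined). Targets were multi-cell spheroids of tumour lines plus HUVEC and MSC stromal cells.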

[1] = second compound 0.00316 µM, first compound 0.0316 µM
[2] = second compound 0.00316 µM, first compound 0.1 µM
[3] = second compound 0.00316 µM, first compound 0.316 µM
[4] = second compound 0.00316 µM, first compound 1 µM
[5] = second compound 0.00316 µM, first compound 3.16 µM
[6] = second compound 0.00316 µM, first compound 10 µM
[7] = second compound 0.01 µM, first compound 0.0316 µM
[8] = second compound 0.01 µM, first compound 0.1 µM
[9] = second compound 0.01 µM, first compound 0.316 µM
[10] = second compound 0.01 µM, first compound 1 µM
[11] = second compound 0.01 µM, first compound 3.16 µM
[12] = second compound 0.01 µM, first compound 10 µM
[13] = second compound 0.0316 µM, first compound 0.0316 µM
[14] = second compound 0.0316 µM, first compound 0.1 µM
[15] = second compound 0.0316 µM, first compound 0.316 µM
[16] = second compound 0.0316 µM, first compound 1 µM
[17] = second compound 0.0316 µM, first compound 3.16 µM
[18] = second compound 0.0316 µM, first compound 10 µM
[19] = second compound 0.1 µM, first compound 0.0316 µM
[20] = second compound 0.1 µM, first compound 0.1 µM
[21] = second compound 0.1 µM, first compound 0.316 µM
[22] = second compound 0.1 µM, first compound 1 µM
[23] = second compound 0.1 µM, first compound 3.16 µM
[24] = second compound 0.1 µM, first compound 10 µM
[25] = second compound 0.316 µM, first compound 0.0316 µM
[26] = second compound 0.316 µM, first compound 0.1 µM
[27] = second compound 0.316 µM, first compound 0.316 µM
[28] = second compound 0.316 µM, first compound 1 µM
[29] = second compound 0.316 µM, first compound 3.16 µM
[30] = second compound 0.316 µM, first compound 10 µM
[31] = second compound 1 µM, first compound 0.0316 µM
[32] = second compound 1 µM, first compound 0.1 µM
[33] = second compound 1 µM, first compound 0.316 µM
[34] = second compound 1 µM, first compound 1 µM
[35] = second compound 1 µM, first compound 3.16 µM
[36] = second compound 1 µM, first compound 10 µM
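Further: spheroids exposed to agents for seven days before viability readout.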
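Wherever viability, T/C is given: 100% = DMSO vehicle control viability.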

Cc1nc(N2CCC3(CC2)COC(C)C3N)c(CO)nc1Sc1ccnc(N)c1Cl (stereo unspecified) + C=CC(=O)N1CCN(c2nc(OCC3CCCN3C)nc3c(F)c(-c4nc(N)cc(C)c4C(F)(F)F)c(Cl)cc23)C(C)C1
IC50 (second compound 0.00316 µM): > 10 µM | IC50 (second compound 0.01 µM): > 10 µM | IC50 (second compound 0.0316 µM): > 10 µM | IC50 (second compound 0.1 µM): > 10 µM | IC50 (second compound 0.316 µM): > 10 µM | IC50 (second compound 1 µM): > 10 µM | viability, T/C [1]: 93.3% | viability, T/C [2]: 101% | viability, T/C [3]: 125% | viability, T/C [4]: 95.6% | viability, T/C [5]: 98.1% | viability, T/C [6]: 84.7% | viability, T/C [7]: 114% | viability, T/C [8]: 111% | viability, T/C [9]: 110% | viability, T/C [10]: 110% | viability, T/C [11]: 90.2% | viability, T/C [12]: 83.7% | viability, T/C [13]: 107% | viability, T/C [14]: 110% | viability, T/C [15]: 114% | viability, T/C [16]: 99.3% | viability, T/C [17]: 109% | viability, T/C [18]: 80.6% | viability, T/C [19]: 98.7% | viability, T/C [20]: 113% | viability, T/C [21]: 115% | viability, T/C [22]: 119% | viability, T/C [23]: 97.3% | viability, T/C [24]: 83.2% | viability, T/C [25]: 105% | viability, T/C [26]: 99% | viability, T/C [27]: 129% | viability, T/C [28]: 102% | viability, T/C [29]: 106% | viability, T/C [30]: 73% | viability, T/C [31]: 97.7% | viability, T/C [32]: 110% | viability, T/C [33]: 99.7% | viability, T/C [34]: 109% | viability, T/C [35]: 89.4% | viability, T/C [36]: 75.4%

NC1c2ccccc2OC12CCN(c1cnc3c(N4CCCc5ncccc54)n[nH]c3n1)CC2 (stereo unspecified) + C=CC(=O)N1CCN(c2nc(OCC3CCCN3C)nc3c(F)c(-c4nc(N)cc(C)c4C(F)(F)F)c(Cl)cc23)C(C)C1
IC50 (second compound 0.00316 µM): > 10 µM | IC50 (second compound 0.01 µM): > 10 µM | IC50 (second compound 0.0316 µM): > 10 µM | IC50 (second compound 0.1 µM): > 10 µM | IC50 (second compound 0.316 µM): > 10 µM | IC50 (second compound 1 µM): > 10 µM | viability, T/C [1]: 119% | viability, T/C [2]: 114% | viability, T/C [3]: 81.2% | viability, T/C [4]: 79.1% | viability, T/C [5]: 58.7% | viability, T/C [6]: 53.5% | viability, T/C [7]: 134% | viability, T/C [8]: 104% | viability, T/C [9]: 95.4% | viability, T/C [10]: 80.5% | viability, T/C [11]: 83% | viability, T/C [12]: 64.2% | viability, T/C [13]: 121% | viability, T/C [14]: 113% | viability, T/C [15]: 95.7% | viability, T/C [16]: 74.9% | viability, T/C [17]: 77.4% | viability, T/C [18]: 60.6% | viability, T/C [19]: 112% | viability, T/C [20]: 110% | viability, T/C [21]: 81.3% | viability, T/C [22]: 93.4% | viability, T/C [23]: 64.7% | viability, T/C [24]: 62.1% | viability, T/C [25]: 120% | viability, T/C [26]: 112% | viability, T/C [27]: 91.4% | viability, T/C [28]: 74.3% | viability, T/C [29]: 70.9% | viability, T/C [30]: 52.3% | viability, T/C [31]: 116% | viability, T/C [32]: 101% | viability, T/C [33]: 91.8% | viability, T/C [34]: 83.6% | viability, T/C [35]: 73% | viability, T/C [36]: 62.3%

Nc1ccn(C2OC(CO)C(O)C2(F)F)c(=O)n1 (stereo unspecified) + C=CC(=O)N1CCN(c2nc(OCC3CCCN3C)nc3c(F)c(-c4nc(N)cc(C)c4C(F)(F)F)c(Cl)cc23)C(C)C1
IC50 (second compound 0.00316 µM): 0.0118 µM | IC50 (second compound 0.01 µM): 0.0117 µM | IC50 (second compound 0.0316 µM): 0.0147 µM | IC50 (second compound 0.1 µM): 0.0154 µM | IC50 (second compound 0.316 µM): 0.00851 µM | IC50 (second compound 1 µM): 0.00978 µM | viability, T/C (second compound 0.00316 µM, first compound 0.00316 µM): 96.1% | viability, T/C (second compound 0.00316 µM, first compound 0.01 µM): 53.2% | viability, T/C [1]: 29.3% | viability, T/C [2]: 14.4% | viability, T/C [3]: 14.2% | viability, T/C [4]: 17.6% | viability, T/C (second compound 0.01 µM, first compound 0.00316 µM): 109% | viability, T/C (second compound 0.01 µM, first compound 0.01 µM): 54.9% | viability, T/C [7]: 18.7% | viability, T/C [8]: 15.8% | viability, T/C [9]: 12.9% | viability, T/C [10]: 16.3% | viability, T/C (second compound 0.0316 µM, first compound 0.00316 µM): 108% | viability, T/C (second compound 0.0316 µM, first compound 0.01 µM): 65.1% | viability, T/C [13]: 20.1% | viability, T/C [14]: 13% | viability, T/C [15]: 9.07% | viability, T/C [16]: 16.4% | viability, T/C (second compound 0.1 µM, first compound 0.00316 µM): 88.9% | viability, T/C (second compound 0.1 µM, first compound 0.01 µM): 64% | viability, T/C [19]: 27% | viability, T/C [20]: 14% | viability, T/C [21]: 13.4% | viability, T/C [22]: 14.6% | viability, T/C (second compound 0.316 µM, first compound 0.00316 µM): 111% | viability, T/C (second compound 0.316 µM, first compound 0.01 µM): 39.9% | viability, T/C [25]: 21% | viability, T/C [26]: 11.6% | viability, T/C [27]: 14.9% | viability, T/C [28]: 20.7% | viability, T/C (second compound 1 µM, first compound 0.00316 µM): 90.7% | viability, T/C (second compound 1 µM, first compound 0.01 µM): 49% | viability, T/C [31]: 25.6% | viability, T/C [32]: 16.8% | viability, T/C [33]: 12.6% | viability, T/C [34]: 17.6%

Reference: PubChem BioAssay AID2060898 (Molecular Pharmacology Branch, DTP, NCI, 2025)
